In ChEMBL document CHEMBL1159148, “Myo-inositol 1,4,6-trisphosphate: A new synthetic Ca2+-mobilising inositol phosphate” (Bioorg Med Chem Lett, 1993) one finds EC50 data, which are given here for 2 compounds.

For orientation: pEC50 means −log10 of the EC50, conventionally taken in molar units. Low values mean a large EC50, high ones a small EC50.

This assay is filed under the species Oryctolagus cuniculus. Nature of the assay: Compound was evaluated for its ability to release [Ca2+] from permeabilised rabbit platelets. It counts as functional.

pEC50: −log10 of the molar value.

`O=P(O)(O)O[C@@H]1[C@H](O)[C@H](O)[C@@H](OP(=O)(O)O)[C@H](OP(=O)(O)O)[C@H]1O` (stereo in doubt; form 2) [INS(1,4,5)P3] showed a negative-log EC50 (pEC50) of 5.68. With `O=P(O)(O)O[C@@H]1[C@H](O)[C@H](O)[C@@H](OP(=O)(O)O)[C@H](OP(=O)(O)O)[C@H]1O` (stereo in doubt; form 1) [INS(1,4,5)P3], the pEC50 was 6.74.
